pKd: −log10 of the molar value. The source made the active and inactive calls. The rule behind the calls is not given here. Bridge positions count the residues as written; N and C are the ends. Square brackets hold non-standard residues; d marks the D form. Peptide text beside a SMILES is read from it. I, II: the chains in the order shown. Phe(3,4-Cl2) = N[C@@H](Cc1ccc(Cl)c(Cl)c1)C(=O)O; Phe(4-CF3) = N[C@@H](Cc1ccc(C(F)(F)F)cc1)C(=O)O; Phe(2,4-Cl2) = N[C@@H](Cc1ccc(Cl)cc1Cl)C(=O)O
Key:
Frizzled-7 [1] = molecular target: T1, Frizzled-7 (Homo sapiens, UniProt O75084); format: cell-based; details: cho
Frizzled-7 [2] = molecular target: T1, Frizzled-7; assay: biochemical; format: cell-based, CHO; details: for pKd: read-out: Kd
Frizzled-7 [3] = molecular target: T1, Frizzled-7; details: CHO
Description: Binding affinity to recombinant human Frizzled-7 (Gln33 to Leu185 residues)/human IgG1 chimeric protein expressed in CHO cells assessed as association rate constant by SPR assay

CSCC[C@H](NC(=O)[C@@H](CC1CCCC1)NC(=O)[C@H](Cc1cnc[nH]1)NC(=O)[C@H](CSSC[C@H](NC(=O)[C@H](Cc1c[nH]c2ccccc12)NC(=O)[C@H](Cc1ccccc1)NC(=O)[C@H](CCC(=O)O)NC(=O)[C@H](CC(C)C)NC(=O)[C@H](CC(=O)O)NC(=O)[C@H](CC(=O)O)NC(=O)[C@H](CO)NC(C)=O)C(=O)N[C@@H](Cc1cnc[nH]1)C(=O)N[C@H](CC1CCCC1)C(=O)N[C@@H](CCSC)C(=O)N[C@@H](Cc1ccc(O)cc1)C(N)=O)NC(=O)[C@H](Cc1c[nH]c2ccccc12)NC(=O)[C@H](Cc1ccccc1)NC(=O)[C@H](CCC(=O)O)NC(=O)[C@H](CC(C)C)NC(=O)[C@H](CC(=O)O)NC(=O)[C@H](CC(=O)O)NC(=O)[C@H](CO)NC(C)=O)C(=O)N[C@@H](Cc1ccc(O)cc1)C(N)=O
Kd (Frizzled-7 [1]): 44.1 ×10⁻³ /s | pKd (Frizzled-7 [2]; cho): 7.84 | Ka (Frizzled-7 [3]): 30.4 ×10⁵ /M/s

CSCC[C@H](NC(=O)[C@@H](CC1CC1)NC(=O)[C@H](Cc1cnc[nH]1)NC(=O)[C@H](CSSC[C@H](NC(=O)[C@H](Cc1c[nH]c2ccccc12)NC(=O)[C@H](Cc1ccccc1)NC(=O)[C@H](CCC(=O)O)NC(=O)[C@H](CC(C)C)NC(=O)[C@H](CC(=O)O)NC(=O)[C@H](CC(=O)O)NC(=O)[C@H](CO)NC(C)=O)C(=O)N[C@@H](Cc1cnc[nH]1)C(=O)N[C@H](CC1CC1)C(=O)N[C@@H](CCSC)C(=O)N[C@@H](Cc1ccc(O)cc1)C(N)=O)NC(=O)[C@H](Cc1c[nH]c2ccccc12)NC(=O)[C@H](Cc1ccccc1)NC(=O)[C@H](CCC(=O)O)NC(=O)[C@H](CC(C)C)NC(=O)[C@H](CC(=O)O)NC(=O)[C@H](CC(=O)O)NC(=O)[C@H](CO)NC(C)=O)C(=O)N[C@@H](Cc1ccc(O)cc1)C(N)=O
Kd (Frizzled-7 [1]): 1.26 ×10⁻³ /s | pKd (Frizzled-7 [2]; cho): 9.80 | Ka (Frizzled-7 [3]): 80.4 ×10⁵ /M/s

CSCC[C@H](NC(=O)[C@@H](CC1CCC1)NC(=O)[C@H](Cc1cnc[nH]1)NC(=O)[C@H](CSSC[C@H](NC(=O)[C@H](Cc1c[nH]c2ccccc12)NC(=O)[C@H](Cc1ccccc1)NC(=O)[C@H](CCC(=O)O)NC(=O)[C@H](CC(C)C)NC(=O)[C@H](CC(=O)O)NC(=O)[C@H](CC(=O)O)NC(=O)[C@H](CO)NC(C)=O)C(=O)N[C@@H](Cc1cnc[nH]1)C(=O)N[C@H](CC1CCC1)C(=O)N[C@@H](CCSC)C(=O)N[C@@H](Cc1ccc(O)cc1)C(N)=O)NC(=O)[C@H](Cc1c[nH]c2ccccc12)NC(=O)[C@H](Cc1ccccc1)NC(=O)[C@H](CCC(=O)O)NC(=O)[C@H](CC(C)C)NC(=O)[C@H](CC(=O)O)NC(=O)[C@H](CC(=O)O)NC(=O)[C@H](CO)NC(C)=O)C(=O)N[C@@H](Cc1ccc(O)cc1)C(N)=O
Kd (Frizzled-7 [1]): 2.13 ×10⁻³ /s | pKd (Frizzled-7 [2]; cho): 9.40 | Ka (Frizzled-7 [3]): 53 ×10⁵ /M/s

CSCC[C@H](NC(=O)[C@@H](CC(C)(C)C)NC(=O)[C@H](Cc1cnc[nH]1)NC(=O)[C@H](CSSC[C@H](NC(=O)[C@H](Cc1c[nH]c2ccccc12)NC(=O)[C@H](Cc1ccccc1)NC(=O)[C@H](CCC(=O)O)NC(=O)[C@H](CC(C)C)NC(=O)[C@H](CC(=O)O)NC(=O)[C@H](CC(=O)O)NC(=O)[C@H](CO)NC(C)=O)C(=O)N[C@@H](Cc1cnc[nH]1)C(=O)N[C@H](CC(C)(C)C)C(=O)N[C@@H](CCSC)C(=O)N[C@@H](Cc1ccc(O)cc1)C(N)=O)NC(=O)[C@H](Cc1c[nH]c2ccccc12)NC(=O)[C@H](Cc1ccccc1)NC(=O)[C@H](CCC(=O)O)NC(=O)[C@H](CC(C)C)NC(=O)[C@H](CC(=O)O)NC(=O)[C@H](CC(=O)O)NC(=O)[C@H](CO)NC(C)=O)C(=O)N[C@@H](Cc1ccc(O)cc1)C(N)=O
Kd (Frizzled-7 [1]): 2.16 ×10⁻³ /s | pKd (Frizzled-7 [2]; cho): 9.49 | Ka (Frizzled-7 [3]): 68.8 ×10⁵ /M/s

CSCC[C@H](NC(=O)[C@@H](NC(=O)[C@H](Cc1cnc[nH]1)NC(=O)[C@H](CO)NC(=O)[C@H](Cc1c[nH]c2ccccc12)NC(=O)[C@H](Cc1ccccc1)NC(=O)[C@H](CCC(=O)O)NC(=O)[C@H](CC(C)C)NC(=O)[C@H](CC(=O)O)NC(=O)[C@H](CC(=O)O)NC(=O)[C@H](CO)NC(=O)[C@@H]1CCCN1C(=O)[C@H](CC(C)C)NC(C)=O)C(C)C)C(=O)N[C@@H](Cc1ccc(O)cc1)C(N)=O (Ac-LPSDDLEFWSHVMY-NH2)
Kd (Frizzled-7 [1]): Not Active | Kd (Frizzled-7 [2]; cho): Not Active | Ka (Frizzled-7 [3]): inactive

CSCC[C@H](NC(=O)[C@@H](NC(=O)[C@H](Cc1cnc[nH]1)NC(=O)[C@H](CSSC[C@H](NC(=O)[C@H](Cc1c[nH]c2ccccc12)NC(=O)[C@H](Cc1ccccc1)NC(=O)[C@H](CCC(=O)O)NC(=O)[C@H](Cc1ccccc1)NC(=O)[C@H](CC(=O)O)NC(=O)[C@H](CC(=O)O)NC(=O)[C@H](CO)NC(C)=O)C(=O)N[C@@H](Cc1cnc[nH]1)C(=O)N[C@H](C(=O)N[C@@H](CCSC)C(=O)N[C@@H](Cc1ccc(O)cc1)C(N)=O)C(C)C)NC(=O)[C@H](Cc1c[nH]c2ccccc12)NC(=O)[C@H](Cc1ccccc1)NC(=O)[C@H](CCC(=O)O)NC(=O)[C@H](Cc1ccccc1)NC(=O)[C@H](CC(=O)O)NC(=O)[C@H](CC(=O)O)NC(=O)[C@H](CO)NC(C)=O)C(C)C)C(=O)N[C@@H](Cc1ccc(O)cc1)C(N)=O (I: Ac-SDDFEFWCHVMY-NH2 / II: Ac-SDDFEFWCHVMY-NH2; disulfide I:8-II:8)
Kd (Frizzled-7 [1]): 62.8 ×10⁻³ /s | pKd (Frizzled-7 [2]): 6.92 | Ka (Frizzled-7 [3]): 5.3 ×10⁵ /M/s

CC[C@H](C)[C@H](NC(=O)[C@H](Cc1cnc[nH]1)NC(=O)[C@H](CSSC[C@H](NC(=O)[C@H](Cc1c[nH]c2ccccc12)NC(=O)[C@H](Cc1ccccc1)NC(=O)[C@H](CCC(=O)O)NC(=O)[C@H](CC(C)C)NC(=O)[C@H](CC(=O)O)NC(=O)[C@H](CC(=O)O)NC(=O)[C@H](CO)NC(C)=O)C(=O)N[C@@H](Cc1cnc[nH]1)C(=O)N[C@H](C(=O)N[C@@H](CCSC)C(=O)N[C@@H](Cc1ccc(O)cc1)C(N)=O)[C@@H](C)CC)NC(=O)[C@H](Cc1c[nH]c2ccccc12)NC(=O)[C@H](Cc1ccccc1)NC(=O)[C@H](CCC(=O)O)NC(=O)[C@H](CC(C)C)NC(=O)[C@H](CC(=O)O)NC(=O)[C@H](CC(=O)O)NC(=O)[C@H](CO)NC(C)=O)C(=O)N[C@@H](CCSC)C(=O)N[C@@H](Cc1ccc(O)cc1)C(N)=O (I: Ac-SDDLEFWCHIMY-NH2 / II: Ac-SDDLEFWCHIMY-NH2; disulfide I:8-II:8)
Kd (Frizzled-7 [1]): 0.96 ×10⁻³ /s | pKd (Frizzled-7 [2]): 9.74 | Ka (Frizzled-7 [3]): 55.1 ×10⁵ /M/s

CSCC[C@H](NC(=O)[C@H](CC(C)C)NC(=O)[C@H](Cc1cnc[nH]1)NC(=O)[C@H](CSSC[C@H](NC(=O)[C@H](Cc1c[nH]c2ccccc12)NC(=O)[C@H](Cc1ccccc1)NC(=O)[C@H](CCC(=O)O)NC(=O)[C@H](CC(C)C)NC(=O)[C@H](CC(=O)O)NC(=O)[C@H](CC(=O)O)NC(=O)[C@H](CO)NC(C)=O)C(=O)N[C@@H](Cc1cnc[nH]1)C(=O)N[C@@H](CC(C)C)C(=O)N[C@@H](CCSC)C(=O)N[C@@H](Cc1ccc(O)cc1)C(N)=O)NC(=O)[C@H](Cc1c[nH]c2ccccc12)NC(=O)[C@H](Cc1ccccc1)NC(=O)[C@H](CCC(=O)O)NC(=O)[C@H](CC(C)C)NC(=O)[C@H](CC(=O)O)NC(=O)[C@H](CC(=O)O)NC(=O)[C@H](CO)NC(C)=O)C(=O)N[C@@H](Cc1ccc(O)cc1)C(N)=O (I: Ac-SDDLEFWCHLMY-NH2 / II: Ac-SDDLEFWCHLMY-NH2; disulfide I:8-II:8)
Kd (Frizzled-7 [1]): 1.9 ×10⁻³ /s | pKd (Frizzled-7 [2]): 9.55 | Ka (Frizzled-7 [3]): 67.2 ×10⁵ /M/s

CSCC[C@H](NC(=O)[C@@H](NC(=O)[C@H](Cc1cnc[nH]1)NC(=O)[C@H](CSSC[C@H](NC(=O)[C@H](Cc1c[nH]c2ccccc12)NC(=O)[C@H](Cc1ccccc1)NC(=O)[C@H](CCC(=O)O)NC(=O)[C@H](CC(C)C)NC(=O)[C@H](CC(=O)O)NC(=O)[C@H](CC(=O)O)NC(=O)[C@H](CO)NC(C)=O)C(=O)N[C@@H](Cc1cnc[nH]1)C(=O)N[C@H](C(=O)N[C@@H](CCSC)C(=O)N[C@@H](Cc1ccc(Cl)cc1Cl)C(N)=O)C(C)C)NC(=O)[C@H](Cc1c[nH]c2ccccc12)NC(=O)[C@H](Cc1ccccc1)NC(=O)[C@H](CCC(=O)O)NC(=O)[C@H](CC(C)C)NC(=O)[C@H](CC(=O)O)NC(=O)[C@H](CC(=O)O)NC(=O)[C@H](CO)NC(C)=O)C(C)C)C(=O)N[C@@H](Cc1ccc(Cl)cc1Cl)C(N)=O (I: Ac-SDDLEFWCHVM[Phe(2,4-Cl2)]-NH2 / II: Ac-SDDLEFWCHVM[Phe(2,4-Cl2)]-NH2; disulfide I:8-II:8)
Kd (Frizzled-7 [1]): 2.89 ×10⁻³ /s | pKd (Frizzled-7 [2]): 7.65 | Ka (Frizzled-7 [3]): 1.29 ×10⁵ /M/s

CSCC[C@H](NC(=O)[C@@H](NC(=O)[C@H](Cc1cnc[nH]1)NC(=O)[C@H](CSSC[C@H](NC(=O)[C@H](Cc1c[nH]c2ccccc12)NC(=O)[C@H](Cc1ccccc1)NC(=O)[C@H](CCC(=O)O)NC(=O)[C@H](CC(C)C)NC(=O)[C@H](CC(=O)O)NC(=O)[C@H](CC(=O)O)NC(=O)[C@H](CO)NC(C)=O)C(=O)N[C@@H](Cc1cnc[nH]1)C(=O)N[C@H](C(=O)N[C@@H](CCSC)C(=O)N[C@@H](Cc1ccc(Cl)c(Cl)c1)C(N)=O)C(C)C)NC(=O)[C@H](Cc1c[nH]c2ccccc12)NC(=O)[C@H](Cc1ccccc1)NC(=O)[C@H](CCC(=O)O)NC(=O)[C@H](CC(C)C)NC(=O)[C@H](CC(=O)O)NC(=O)[C@H](CC(=O)O)NC(=O)[C@H](CO)NC(C)=O)C(C)C)C(=O)N[C@@H](Cc1ccc(Cl)c(Cl)c1)C(N)=O (I: Ac-SDDLEFWCHVM[Phe(3,4-Cl2)]-NH2 / II: Ac-SDDLEFWCHVM[Phe(3,4-Cl2)]-NH2; disulfide I:8-II:8)
Kd (Frizzled-7 [1]): 0.9 ×10⁻³ /s | pKd (Frizzled-7 [2]): 8.19 | Ka (Frizzled-7 [3]): 1.4 ×10⁵ /M/s

CSCC[C@H](NC(=O)[C@@H](NC(=O)[C@H](Cc1cnc[nH]1)NC(=O)[C@H](CSSC[C@H](NC(=O)[C@H](Cc1c[nH]c2ccccc12)NC(=O)[C@H](Cc1ccccc1)NC(=O)[C@H](CCC(=O)O)NC(=O)[C@H](CC(C)C)NC(=O)[C@H](CC(=O)O)NC(=O)[C@H](CC(=O)O)NC(=O)[C@H](CO)NC(C)=O)C(=O)N[C@@H](Cc1cnc[nH]1)C(=O)N[C@H](C(=O)N[C@@H](CCSC)C(=O)N[C@@H](Cc1ccc(C(F)(F)F)cc1)C(N)=O)C(C)C)NC(=O)[C@H](Cc1c[nH]c2ccccc12)NC(=O)[C@H](Cc1ccccc1)NC(=O)[C@H](CCC(=O)O)NC(=O)[C@H](CC(C)C)NC(=O)[C@H](CC(=O)O)NC(=O)[C@H](CC(=O)O)NC(=O)[C@H](CO)NC(C)=O)C(C)C)C(=O)N[C@@H](Cc1ccc(C(F)(F)F)cc1)C(N)=O (I: Ac-SDDLEFWCHVM[Phe(4-CF3)]-NH2 / II: Ac-SDDLEFWCHVM[Phe(4-CF3)]-NH2; disulfide I:8-II:8)
Kd (Frizzled-7 [1]): 1.9 ×10⁻³ /s | pKd (Frizzled-7 [2]): 7.88 | Ka (Frizzled-7 [3]): 1.45 ×10⁵ /M/s
